For experiment [1], the system named is K-Ras G12C (NCI-H358 cells). Kind of experiment: Potency assay: pERK in NCI-H358 cells. The experiment is classed as cell-based, human. The note with it: Homo sapiens; NCI-H358 cells, 4 hours; read-out: pERK EC50 (H358 KRAS G12C). In short, it runs like this:
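Cells plated the day before were exposed for 4 h at 37° C, 5% CO2 to a 10-point, 3-fold DMSO dilution series (10 mM top stock), in duplicate. Phospho-ERK was read by AlphaLISA SureFire Ultra or by In-Cell Western with DRAQ5 DNA stain, and IC50 came from a 4-parameter sigmoidal fit.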

The subject of experiment [2] is Capan-1 cells (K-Ras G12V). Kind of experiment: CellTiter-Glo cell viability, Capan-1. It is filed as cell-based, human. The conditions noted are these: Homo sapiens, CAPAN-1, 120 h, K-Ras G12V, 5-day treatment; read-out: Capan-1 Cell Viability IC50. The essentials:
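Luminescence read on day 5 after ~30 min room-temperature equilibration; compounds added directly to plated cells. Values = (sample signal/avg DMSO)*100, four-parameter logistic fit.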

In a further experiment the target is KRAS G12S (Homo sapiens (Human), UniProt P01116+P62937, G12S). The experiment can be described thus: Ras-Raf disruption/FRET/MOA assay (BRAF RBD, Cyclophilin A). The experiment is classed as biochemical. The note with it: read-out: KRAS G12S FRET IC50. The essentials: (§1)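 TR-FRET read after 1.5 h with 10 nM anti-His Eu-W1024 and 50 nM anti-GST APC, following 3 h at 25 °C of GMPPNP-loaded His6-Ras (12.5 nM), GST-BRAF RBD (50 nM) and Cyclophilin A (25 μM) with compound from 30 μM final, 10 points, 3-fold. IC50 reported; pH 7.3 HEPES, 100 mM NaCl.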
Sequence of KRAS G12S (P01116 other isoform, or with tags, fused parts or gaps G12S): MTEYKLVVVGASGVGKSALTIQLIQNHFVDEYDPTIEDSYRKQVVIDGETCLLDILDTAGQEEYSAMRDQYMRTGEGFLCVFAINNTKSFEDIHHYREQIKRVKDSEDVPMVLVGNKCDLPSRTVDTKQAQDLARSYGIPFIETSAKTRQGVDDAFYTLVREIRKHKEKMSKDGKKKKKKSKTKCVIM
Sequence of KRAS G12S (P62937 whole entry): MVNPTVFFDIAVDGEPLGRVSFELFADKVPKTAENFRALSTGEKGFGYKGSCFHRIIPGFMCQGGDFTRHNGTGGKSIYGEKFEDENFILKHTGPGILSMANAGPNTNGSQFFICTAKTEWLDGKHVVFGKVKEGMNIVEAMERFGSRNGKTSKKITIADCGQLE

A further experiment concerns the target KRAS G12C (Homo sapiens (Human), UniProt P01116+P62937, G12C). Described as above. The experiment is classed as biochemical. The note with it: read-out: KRAS G12C FRET IC50. The essentials: as §1
The next experiment concerns the target KRAS G12D (Homo sapiens (Human), UniProt P01116+P62937, G12D). The description is as above. The experiment is classed as biochemical. The conditions noted are these: read-out: KRAS G12D FRET IC50. In short, it runs like this: as §1
For a further experiment, the target named is NRAS G12C (Homo sapiens (Human), UniProt P01111+P62937, G12C). Described as above. It is filed as biochemical. The conditions noted are these: read-out: NRAS G12C FRET data IC50. In short, it runs like this: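 Measured: compound-facilitated Cyclophilin A:Ras complex blocking RAF RBD binding. Conditions: 12.5 nM Ras-GMPPNP, 50 nM BRAF RBD, 25 μM CypA, 3 h plus 1.5 h detection. Output: IC50 from TR-FRET ratio.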
Sequence of NRAS G12C (P01111 whole entry G12C): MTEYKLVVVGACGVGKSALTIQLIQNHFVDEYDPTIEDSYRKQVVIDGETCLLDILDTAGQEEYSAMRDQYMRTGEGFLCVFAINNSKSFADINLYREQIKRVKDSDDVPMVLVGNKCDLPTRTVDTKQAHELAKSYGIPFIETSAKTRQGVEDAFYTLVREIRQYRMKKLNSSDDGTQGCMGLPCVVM
Sequence of NRAS G12C (P62937 whole entry): as the sequence (P62937 whole entry) above

For a further experiment, the target named is KRAS G13D (Homo sapiens (Human), UniProt P01116+P62937, G13D). The experiment is described as above. The experiment is classed as biochemical. The conditions noted are these: read-out: KRAS G13D FRET data IC50. The essentials:
as §1

In the next experiment the target is KRAS G13C (Homo sapiens (Human), UniProt P01116+P62937, G13C). The description is as above. It is filed as biochemical. The conditions noted are these: read-out: KRAS G13C FRET IC50. In short, it runs like this:
as §1

The next experiment addresses KRAS G12V (Homo sapiens (Human), UniProt P01116+P62937, G12V). The experiment is described as above. The experiment is classed as biochemical. The conditions noted are these: read-out: KRAS G12V FRET IC50. In short, it runs like this: as §1
A further experiment addresses KRAS WT (Homo sapiens (Human), UniProt P01116+P62937). The description is as above. It is filed as biochemical. The note with it: read-out: KRAS WT FRET data IC50. In short, it runs like this: as §1

As a reminder, the EC50 is the concentration at which the effect is half-maximal. As a reminder, the IC50 is the midpoint of a concentration-inhibition curve.

Sequence of KRAS G12D (P01116 other isoform, or with tags, fused parts or gaps G12D): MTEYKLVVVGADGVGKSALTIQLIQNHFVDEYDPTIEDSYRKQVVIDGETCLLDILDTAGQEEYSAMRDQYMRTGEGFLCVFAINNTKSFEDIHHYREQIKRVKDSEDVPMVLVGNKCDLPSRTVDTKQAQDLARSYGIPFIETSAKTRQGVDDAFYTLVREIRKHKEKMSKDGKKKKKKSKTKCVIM
Sequence of KRAS G12D (P62937 whole entry): as the sequence (P62937 whole entry) above
Sequence of KRAS G12V (P01116 other isoform, or with tags, fused parts or gaps G12V): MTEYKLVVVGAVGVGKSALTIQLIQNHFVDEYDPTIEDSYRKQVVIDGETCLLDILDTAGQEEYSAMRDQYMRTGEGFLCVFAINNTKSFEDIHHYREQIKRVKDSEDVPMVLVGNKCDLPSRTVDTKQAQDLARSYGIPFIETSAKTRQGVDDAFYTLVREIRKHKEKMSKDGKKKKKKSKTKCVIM
Sequence of KRAS G12V (P62937 whole entry): as the sequence (P62937 whole entry) above
Sequence of KRAS G13D (P01116 other isoform, or with tags, fused parts or gaps G13D): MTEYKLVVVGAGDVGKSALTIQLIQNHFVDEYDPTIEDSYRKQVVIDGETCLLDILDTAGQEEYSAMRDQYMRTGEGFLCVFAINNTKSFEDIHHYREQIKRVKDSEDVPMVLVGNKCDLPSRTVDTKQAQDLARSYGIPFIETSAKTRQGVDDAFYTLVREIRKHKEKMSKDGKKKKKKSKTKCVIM
Sequence of KRAS G13D (P62937 whole entry): as the sequence (P62937 whole entry) above
Sequence of KRAS G12C (P01116-2 other isoform, or with tags, fused parts or gaps G12C): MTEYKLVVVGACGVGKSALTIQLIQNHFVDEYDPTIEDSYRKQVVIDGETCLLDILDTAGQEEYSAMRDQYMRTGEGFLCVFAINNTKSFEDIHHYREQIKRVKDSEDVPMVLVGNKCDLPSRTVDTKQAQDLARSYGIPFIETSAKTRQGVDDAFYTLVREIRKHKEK
Sequence of KRAS G12C (P62937 whole entry): as the sequence (P62937 whole entry) above
Sequence of KRAS WT (P01116 other isoform, or with tags, fused parts or gaps): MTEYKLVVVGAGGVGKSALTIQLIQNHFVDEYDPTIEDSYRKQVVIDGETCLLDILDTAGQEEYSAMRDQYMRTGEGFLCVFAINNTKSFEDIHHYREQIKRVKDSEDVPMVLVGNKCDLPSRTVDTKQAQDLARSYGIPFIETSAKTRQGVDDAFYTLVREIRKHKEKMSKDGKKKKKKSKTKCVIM
Sequence of KRAS WT (P62937 whole entry): as the sequence (P62937 whole entry) above
Sequence of KRAS G13C (P01116 other isoform, or with tags, fused parts or gaps G13C): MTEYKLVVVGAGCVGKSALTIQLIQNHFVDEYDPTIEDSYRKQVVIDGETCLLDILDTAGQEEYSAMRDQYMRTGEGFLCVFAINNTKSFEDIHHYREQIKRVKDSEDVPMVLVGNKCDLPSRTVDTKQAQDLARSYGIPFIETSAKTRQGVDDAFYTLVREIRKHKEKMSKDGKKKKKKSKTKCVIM
Sequence of KRAS G13C (P62937 whole entry): as the sequence (P62937 whole entry) above

`CCn1c(-c2cnccc2COC)c2c3cc(ccc31)-c1cc(O)cc(c1)C[C@H](NC(=O)[C@H](C(C)C)N(C)C(=O)C1CN(C)C1)C(=O)N1CCC[C@H](N1)C(=O)OCC(C)(C)C2` [Compound A88]: in experiment [1], the EC50 was below 5 µM. The IC50 in experiment [2] is above 10 µM; on KRAS G12S, 0.1 to 1 µM; on KRAS G12C, 0.1 to 1 µM; at KRAS G12D, 0.1 to 1 µM; on NRAS G12C it was 0.1 to 1 µM; on KRAS G13D, 0.01 to 0.1 µM. Further, the figures for the IC50 at KRAS G13C, at KRAS G12V and at KRAS WT were 0.01 to 0.1 µM, 1 to 10 µM and 0.1 to 1 µM, respectively.

Consider `CCn1c(-c2cccnc2[C@H](C)OC)c2c3cc(ccc31)-c1cccc(c1)C[C@H](NC(=O)[C@H](C(C)C)N(C)C(=O)[C@H]1CCN(C)C1)C(=O)N1CCC[C@H](N1)C(=O)OCC(C)(C)C2` [Compound A107], for which, in experiment [1], the half-maximal effective concentration (EC50) was below 5 µM. For the same compound, the IC50 (in experiment [2]; at KRAS G12S; on KRAS G12C; on KRAS G12D; at NRAS G12C; on KRAS G13D) was 1 to 10 µM each time. For the same compound, the IC50 at KRAS G13C was 0.1 to 1 µM; at KRAS G12V, above 10 µM; on KRAS WT, 1 to 10 µM.

For `CCn1c(-c2cccnc2[C@H](C)OC)c2c3cc(ccc31)-c1cc(O)cc(c1)C[C@H](NC(=O)[C@H](C(C)C)N(C)C(=O)[C@H]1CCN(C(=O)[C@]3(C)CCCN3)C1)C(=O)N1CCC[C@H](N1)C(=O)OCC(C)(C)C2` [Compound A380], the EC50 in [1] was below 5 µM. Further, the IC50 in experiment [2] lay within 1 to 10 µM; on KRAS G12S, 0.01 to 0.1 µM; at KRAS G12C, 0.01 to 0.1 µM; at KRAS G12D, 0.01 to 0.1 µM; on NRAS G12C, 0.01 to 0.1 µM; on KRAS G13D, 0.01 to 0.1 µM. Besides, the IC50 at KRAS G13C, at KRAS G12V and at KRAS WT was 0.01 to 0.1 µM throughout.

As to `CCn1c(-c2cccnc2[C@H](C)OC)c2c3cc(ccc31)-c1cc(O)cc(c1)C[C@H](NC(=O)[C@H](C(C)C)N(C)C(=O)[C@@H]1CCN(C(=O)OC)C1)C(=O)N1CCC[C@H](N1)C(=O)OCC(C)(C)C2` [Compound A365], the EC50 in experiment [1] was below 5 µM. Moreover, the IC50 (in experiment [2]; at KRAS G12S; on KRAS G12C; at KRAS G12D; at NRAS G12C; on KRAS G13D) was 0.01 to 0.1 µM throughout. The IC50 at KRAS G13C, at KRAS G12V and on KRAS WT was 0.01 to 0.1 µM each time.

Regarding `CCn1c(-c2cccnc2[C@H](C)OC)c2c3cc(ccc31)-c1cc(O)cc(c1)C[C@H](NC(=O)[C@@H]1[C@H](C)CCN1C(C)=O)C(=O)N1CCC[C@H](N1)C(=O)OCC(C)(C)C2` [Compound A144], the EC50 in experiment [1] is below 5 µM. Also, the IC50 was 1 to 10 µM in experiment [2]; 1 to 10 µM on KRAS G12S; 0.1 to 1 µM at KRAS G12C; 1 to 10 µM at KRAS G12D; 1 to 10 µM on NRAS G12C; 1 to 10 µM at KRAS G13D. The IC50 fell in the range of 0.1 to 1 µM at KRAS G13C, 1 to 10 µM at KRAS G12V and 0.1 to 1 µM at KRAS WT.

With `CCn1c(-c2cccnc2[C@H](C)OC)c2c3cc(ccc31)-c1cc(O)cc(c1)C[C@H](NC(=O)[C@H](C(C)C)N(C)C(=O)[C@H]1CCN(C(=O)[C@@H]3CCCN3)C1)C(=O)N1CCC[C@H](N1)C(=O)OCC(C)(C)C2` [Compound A370], the EC50 in experiment [1] was below 5 µM. For the same compound, the IC50 fell in the range of 1 to 10 µM in experiment [2]; 0.01 to 0.1 µM on KRAS G12S; 0.01 to 0.1 µM on KRAS G12C; 0.01 to 0.1 µM on KRAS G12D; 0.01 to 0.1 µM on NRAS G12C; 0.01 to 0.1 µM at KRAS G13D. Further, the IC50 on KRAS G13C, on KRAS G12V and on KRAS WT was 0.01 to 0.1 µM each time.
